{"source": "patent US20260224588A1", "about": "“BENZODIAZEPINONE-DERIVED INHIBITORS OF EGFR AND HER2” (The Research Foundation for the State University of New York, priority 2023, published 2026)", "key": {"[1]": {"molecular_target": "T1, NEK7 (Homo sapiens, UniProt Q8TDX7)", "T1 construct": "purchased Eurofins DiscoverX Corporation (KINOMEscan)", "assay": "KINOMEscan", "assay_type": "binding", "settings": "1 μM of compound 4; read-out: POC"}, "[2]": {"molecular_target": "T2, EGFR [T790M/L858R] (Homo sapiens, UniProt P00533, L858R/T790M)", "T2 construct": "EGFR [T790M/L858R] and EGFR [L858R], cytoplasmic domain (669-1210), GST-tagged, Carna; GST; purchased Carna 08-510", "T2 sequence (P00533 669-1210 T790M/L858R)": "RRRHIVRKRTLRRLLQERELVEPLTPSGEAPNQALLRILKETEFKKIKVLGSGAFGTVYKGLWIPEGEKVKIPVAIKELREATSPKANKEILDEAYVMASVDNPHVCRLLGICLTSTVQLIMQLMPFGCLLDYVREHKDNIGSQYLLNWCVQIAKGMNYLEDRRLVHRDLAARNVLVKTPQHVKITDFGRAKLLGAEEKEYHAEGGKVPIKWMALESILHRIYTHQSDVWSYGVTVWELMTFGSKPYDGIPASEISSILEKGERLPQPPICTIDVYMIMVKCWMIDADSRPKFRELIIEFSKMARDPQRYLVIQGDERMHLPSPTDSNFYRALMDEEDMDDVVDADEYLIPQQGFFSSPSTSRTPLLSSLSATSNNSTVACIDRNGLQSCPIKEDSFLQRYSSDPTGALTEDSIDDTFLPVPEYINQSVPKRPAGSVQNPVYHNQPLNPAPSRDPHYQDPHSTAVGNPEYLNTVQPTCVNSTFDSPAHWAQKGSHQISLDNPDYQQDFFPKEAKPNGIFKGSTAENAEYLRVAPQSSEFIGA", "assay": "Time-dependent kinase inhibition assay (Sox-based substrate)", "assay_type": "biochemical", "procedure": "(§1) Time-dependent Kinase Inhibition Assays. Biochemical assays were performed with commercially available EGFR WT, cytoplasmic domain (669-1210), GST-tagged, Carna (Cat #/Lot #: 08-115/21CBS-0127H), EGFR [T790M/L858R] and EGFR [L858R], cytoplasmic domain (669-1210), GST-tagged, Carna (Cat #/Lot #: 08-510/12CBS-0765M). […] BSA was not included in this experiment to prevent interference with irreversible inhibitor characterization via off-target binding. All reactions were run for 240 minutes at 30° C. Time-dependent fluorescence from the Sox-based substrate was monitored in PerkinElmer ProxiPlate-384 Plus, white shallow well microplates (Cat. #6008280) Biotek Synergy Neo 2 microplate reader with excitation (360 nm) and emission (485 nm) wavelengths. 2 was dosed between 0 and 10 μM in 24-point curves with 1.5-fold dilutions. Fluorescence, determined with identical reactions but lacking purified enzyme or crude cell lysate was subtracted from the total fluorescence signal for each time point, with both determined in duplicate, to obtain corrected relative fluorescence units (RFU). Corrected RFU values then were plotted vs. time and the reaction velocity for the first ~40 min (initial reaction rates) were determined from the slope using GraphPad Prism (La Jolla, CA) with units of RFU/min."}, "[3]": {"molecular_target": "T3, EGFR WT (Homo sapiens, UniProt P00533)", "T3 construct": "EGFR WT, cytoplasmic domain (669-1210), GST-tagged, Carna; purchased Carna 08-115", "T3 sequence (P00533 669-1210)": "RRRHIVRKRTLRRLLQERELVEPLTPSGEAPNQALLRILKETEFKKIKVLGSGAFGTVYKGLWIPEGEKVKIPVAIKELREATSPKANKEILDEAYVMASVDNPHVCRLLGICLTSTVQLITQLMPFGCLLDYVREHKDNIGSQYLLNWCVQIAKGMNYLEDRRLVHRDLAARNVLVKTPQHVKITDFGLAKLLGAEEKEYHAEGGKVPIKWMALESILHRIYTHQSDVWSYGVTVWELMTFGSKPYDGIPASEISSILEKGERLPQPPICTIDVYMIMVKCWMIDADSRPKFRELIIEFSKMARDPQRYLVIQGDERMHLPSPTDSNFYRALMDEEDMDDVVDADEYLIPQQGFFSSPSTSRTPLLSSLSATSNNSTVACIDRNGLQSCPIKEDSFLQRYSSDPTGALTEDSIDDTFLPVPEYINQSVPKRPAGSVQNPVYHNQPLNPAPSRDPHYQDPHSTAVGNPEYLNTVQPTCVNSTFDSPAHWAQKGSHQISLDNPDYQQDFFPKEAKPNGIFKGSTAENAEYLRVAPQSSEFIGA", "assay": "Time-dependent kinase inhibition assay (Sox-based substrate)", "assay_type": "biochemical", "procedure": "as §1"}, "[4]": {"molecular_target": "ACVRL1 (Homo sapiens, UniProt P37023)", "assay": "KINOMEscan", "assay_type": "binding", "settings": "1 μM of compound 4; read-out: POC"}, "[5]": {"molecular_target": "T4, TYK2(JH2domain-pseudokinase) (Homo sapiens, UniProt P29597)", "T4 construct": "TYK2(JH2domain-pseudokinase); purchased Eurofins DiscoverX", "T4 sequence (P29597 589-875 limits assumed)": "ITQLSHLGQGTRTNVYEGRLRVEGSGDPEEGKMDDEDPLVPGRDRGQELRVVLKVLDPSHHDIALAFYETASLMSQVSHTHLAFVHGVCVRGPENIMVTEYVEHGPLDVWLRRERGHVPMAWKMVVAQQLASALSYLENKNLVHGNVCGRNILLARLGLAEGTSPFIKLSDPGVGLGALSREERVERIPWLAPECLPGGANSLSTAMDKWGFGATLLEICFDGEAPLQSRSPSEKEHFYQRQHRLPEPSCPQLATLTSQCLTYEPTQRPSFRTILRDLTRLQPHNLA", "assay": "KINOMEscan", "assay_type": "binding", "settings": "1 μM of compound 4; read-out: POC"}, "[6]": {"molecular_target": "T5, TSSK1B (Homo sapiens, UniProt Q9BXA7)", "T5 construct": "purchased Eurofins DiscoverX Corporation", "assay": "KINOMEscan", "assay_type": "binding", "settings": "1 μM of compound 4; read-out: POC"}, "[7]": {"molecular_target": "CSNK1E (Homo sapiens, UniProt P49674)", "assay": "KINOMEscan", "assay_type": "binding", "settings": "1 μM of compound 4; read-out: POC"}, "[8]": {"molecular_target": "T6, YANK1 (Homo sapiens, UniProt Q8WU08)", "T6 construct": "purchased Eurofins DiscoverX", "assay": "KINOMEscan", "assay_type": "binding", "settings": "1 μM of compound 4; read-out: POC"}, "[9]": {"molecular_target": "T7, ERK2 (Homo sapiens, UniProt P28482)", "T7 construct": "purchased Eurofins DiscoverX Corporation", "assay": "KINOMEscan", "assay_type": "binding", "settings": "1 μM of compound 4; read-out: POC"}, "[10]": {"molecular_target": "T8, SNARK (Homo sapiens, UniProt Q9H093)", "T8 construct": "purchased Eurofins DiscoverX (KINOMEscan service)", "assay": "KINOMEscan", "assay_type": "binding", "settings": "1 μM of compound 4; read-out: POC"}, "[11]": {"molecular_target": "PLK3 (Homo sapiens, UniProt Q9H4B4)", "assay": "KINOMEscan", "assay_type": "binding", "settings": "1 μM of compound 4; read-out: POC"}, "[12]": {"molecular_target": "T9, ERN1 (Homo sapiens, UniProt O75460)", "T9 construct": "purchased Eurofins DiscoverX Corporation", "assay": "KINOMEscan", "assay_type": "binding", "settings": "1 μM of compound 4; read-out: POC"}, "[13]": {"molecular_target": "MYLK4 (Homo sapiens, UniProt Q86YV6)", "assay": "KINOMEscan", "assay_type": "binding", "settings": "1 μM of compound 4; read-out: POC"}, "[14]": {"molecular_target": "NDR2 (Homo sapiens, UniProt Q9Y2H1)", "assay": "KINOMEscan", "assay_type": "binding", "settings": "1 μM of compound 4; read-out: POC"}, "[15]": {"molecular_target": "T10, SRMS (Homo sapiens, UniProt Q9H3Y6)", "T10 construct": "purchased Eurofins DiscoverX (KINOMEscan service)", "assay": "KINOMEscan", "assay_type": "binding", "settings": "1 μM of compound 4; read-out: POC"}, "[16]": {"molecular_target": "DRAK1 (Homo sapiens, UniProt Q9UEE5)", "sequence (Q9UEE5 whole entry)": "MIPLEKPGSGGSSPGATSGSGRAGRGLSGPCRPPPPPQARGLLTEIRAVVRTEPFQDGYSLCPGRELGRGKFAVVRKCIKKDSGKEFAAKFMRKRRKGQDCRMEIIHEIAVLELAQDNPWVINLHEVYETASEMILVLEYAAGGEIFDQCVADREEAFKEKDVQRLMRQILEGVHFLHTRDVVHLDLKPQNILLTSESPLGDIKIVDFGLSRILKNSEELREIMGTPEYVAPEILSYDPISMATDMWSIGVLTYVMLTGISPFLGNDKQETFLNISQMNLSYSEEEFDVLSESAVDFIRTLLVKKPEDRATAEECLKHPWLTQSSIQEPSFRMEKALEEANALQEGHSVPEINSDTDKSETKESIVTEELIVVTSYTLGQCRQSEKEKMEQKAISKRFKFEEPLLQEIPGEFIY", "assay": "KINOMEscan", "assay_type": "binding", "settings": "1 μM of compound 4; read-out: POC"}, "[17]": {"molecular_target": "T11, SGK (Homo sapiens, UniProt O00141)", "T11 construct": "purchased Eurofins DiscoverX (KINOMEscan service)", "assay": "KINOMEscan", "assay_type": "binding", "settings": "1 μM of compound 4; read-out: POC"}, "[18]": {"molecular_target": "MET(Y1235D) (Homo sapiens, UniProt P08581, Y1235D)", "sequence (P08581 25-1390 Y1235D)": "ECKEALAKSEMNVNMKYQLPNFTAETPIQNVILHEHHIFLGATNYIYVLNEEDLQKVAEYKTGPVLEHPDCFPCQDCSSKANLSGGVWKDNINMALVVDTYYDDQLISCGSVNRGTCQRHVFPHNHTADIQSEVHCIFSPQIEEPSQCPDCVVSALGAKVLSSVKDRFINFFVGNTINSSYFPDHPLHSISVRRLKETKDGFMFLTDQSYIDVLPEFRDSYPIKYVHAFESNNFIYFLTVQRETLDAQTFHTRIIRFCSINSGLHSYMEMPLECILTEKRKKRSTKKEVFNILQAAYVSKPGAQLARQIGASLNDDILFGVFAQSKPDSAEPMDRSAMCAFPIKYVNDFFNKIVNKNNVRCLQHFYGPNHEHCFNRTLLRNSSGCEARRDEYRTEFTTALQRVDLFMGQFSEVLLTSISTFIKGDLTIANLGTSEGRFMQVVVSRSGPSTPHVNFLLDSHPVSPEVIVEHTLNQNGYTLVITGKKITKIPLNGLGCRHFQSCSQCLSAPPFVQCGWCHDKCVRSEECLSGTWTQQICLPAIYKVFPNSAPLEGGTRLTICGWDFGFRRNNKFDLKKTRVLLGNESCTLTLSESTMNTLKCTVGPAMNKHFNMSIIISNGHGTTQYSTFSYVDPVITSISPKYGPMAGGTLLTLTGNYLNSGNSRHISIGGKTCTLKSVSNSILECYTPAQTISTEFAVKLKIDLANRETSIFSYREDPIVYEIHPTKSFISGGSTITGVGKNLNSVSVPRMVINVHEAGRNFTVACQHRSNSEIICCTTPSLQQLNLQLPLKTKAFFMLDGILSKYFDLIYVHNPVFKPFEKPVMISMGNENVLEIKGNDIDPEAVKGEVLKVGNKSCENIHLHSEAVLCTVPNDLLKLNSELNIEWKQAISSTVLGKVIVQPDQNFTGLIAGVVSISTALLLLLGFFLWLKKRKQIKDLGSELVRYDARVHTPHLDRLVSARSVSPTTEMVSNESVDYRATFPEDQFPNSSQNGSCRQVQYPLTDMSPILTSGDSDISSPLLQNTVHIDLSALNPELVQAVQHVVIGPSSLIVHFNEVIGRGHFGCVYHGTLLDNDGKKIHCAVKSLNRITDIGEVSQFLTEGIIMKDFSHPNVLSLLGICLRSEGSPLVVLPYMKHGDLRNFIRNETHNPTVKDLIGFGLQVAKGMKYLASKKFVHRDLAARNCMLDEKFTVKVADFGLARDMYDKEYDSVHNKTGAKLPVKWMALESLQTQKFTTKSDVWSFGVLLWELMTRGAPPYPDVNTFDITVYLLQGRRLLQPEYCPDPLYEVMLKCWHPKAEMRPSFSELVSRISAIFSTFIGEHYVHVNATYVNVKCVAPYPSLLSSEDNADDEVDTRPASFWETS", "assay": "KINOMEscan", "assay_type": "binding", "settings": "1 μM of compound 4; read-out: POC"}, "[19]": {"molecular_target": "T12, ERK8 (Homo sapiens, UniProt Q8TD08)", "T12 construct": "purchased Eurofins DiscoverX Corporation", "assay": "KINOMEscan", "assay_type": "binding", "settings": "1 μM of compound 4; read-out: POC"}, "[20]": {"molecular_target": "T13, ROS1 (Homo sapiens, UniProt P08922)", "T13 construct": "purchased Eurofins DiscoverX Corporation (KINOMEscan screening service)", "assay": "KINOMEscan", "assay_type": "binding", "settings": "1 μM of compound 4; read-out: POC"}, "[21]": {"molecular_target": "LIMK1 (Homo sapiens, UniProt P53667)", "assay": "KINOMEscan", "assay_type": "binding", "settings": "1 μM of compound 4; read-out: POC"}, "[22]": {"molecular_target": "T14, ROCK2 (Homo sapiens, UniProt O75116)", "T14 construct": "purchased Eurofins DiscoverX Corporation (KINOMEscan screening service)", "assay": "KINOMEscan", "assay_type": "binding", "settings": "1 μM of compound 4; read-out: POC"}, "[23]": {"molecular_target": "BMPR2 (Homo sapiens, UniProt Q13873)", "assay": "KINOMEscan", "assay_type": "binding", "settings": "1 μM of compound 4; read-out: POC"}, "[24]": {"molecular_target": "PIK3CA(I800L) (Homo sapiens, UniProt P42336, I800L)", "assay": "KINOMEscan", "assay_type": "binding", "settings": "1 μM of compound 4; read-out: POC"}, "[25]": {"molecular_target": "PIKFYVE (Homo sapiens, UniProt Q9Y2I7)", "assay": "KINOMEscan", "assay_type": "binding", "settings": "1 μM of compound 4; read-out: POC"}, "[26]": {"molecular_target": "MAP3K4 (Homo sapiens, UniProt Q9Y6R4)", "sequence (Q9Y6R4 whole entry)": "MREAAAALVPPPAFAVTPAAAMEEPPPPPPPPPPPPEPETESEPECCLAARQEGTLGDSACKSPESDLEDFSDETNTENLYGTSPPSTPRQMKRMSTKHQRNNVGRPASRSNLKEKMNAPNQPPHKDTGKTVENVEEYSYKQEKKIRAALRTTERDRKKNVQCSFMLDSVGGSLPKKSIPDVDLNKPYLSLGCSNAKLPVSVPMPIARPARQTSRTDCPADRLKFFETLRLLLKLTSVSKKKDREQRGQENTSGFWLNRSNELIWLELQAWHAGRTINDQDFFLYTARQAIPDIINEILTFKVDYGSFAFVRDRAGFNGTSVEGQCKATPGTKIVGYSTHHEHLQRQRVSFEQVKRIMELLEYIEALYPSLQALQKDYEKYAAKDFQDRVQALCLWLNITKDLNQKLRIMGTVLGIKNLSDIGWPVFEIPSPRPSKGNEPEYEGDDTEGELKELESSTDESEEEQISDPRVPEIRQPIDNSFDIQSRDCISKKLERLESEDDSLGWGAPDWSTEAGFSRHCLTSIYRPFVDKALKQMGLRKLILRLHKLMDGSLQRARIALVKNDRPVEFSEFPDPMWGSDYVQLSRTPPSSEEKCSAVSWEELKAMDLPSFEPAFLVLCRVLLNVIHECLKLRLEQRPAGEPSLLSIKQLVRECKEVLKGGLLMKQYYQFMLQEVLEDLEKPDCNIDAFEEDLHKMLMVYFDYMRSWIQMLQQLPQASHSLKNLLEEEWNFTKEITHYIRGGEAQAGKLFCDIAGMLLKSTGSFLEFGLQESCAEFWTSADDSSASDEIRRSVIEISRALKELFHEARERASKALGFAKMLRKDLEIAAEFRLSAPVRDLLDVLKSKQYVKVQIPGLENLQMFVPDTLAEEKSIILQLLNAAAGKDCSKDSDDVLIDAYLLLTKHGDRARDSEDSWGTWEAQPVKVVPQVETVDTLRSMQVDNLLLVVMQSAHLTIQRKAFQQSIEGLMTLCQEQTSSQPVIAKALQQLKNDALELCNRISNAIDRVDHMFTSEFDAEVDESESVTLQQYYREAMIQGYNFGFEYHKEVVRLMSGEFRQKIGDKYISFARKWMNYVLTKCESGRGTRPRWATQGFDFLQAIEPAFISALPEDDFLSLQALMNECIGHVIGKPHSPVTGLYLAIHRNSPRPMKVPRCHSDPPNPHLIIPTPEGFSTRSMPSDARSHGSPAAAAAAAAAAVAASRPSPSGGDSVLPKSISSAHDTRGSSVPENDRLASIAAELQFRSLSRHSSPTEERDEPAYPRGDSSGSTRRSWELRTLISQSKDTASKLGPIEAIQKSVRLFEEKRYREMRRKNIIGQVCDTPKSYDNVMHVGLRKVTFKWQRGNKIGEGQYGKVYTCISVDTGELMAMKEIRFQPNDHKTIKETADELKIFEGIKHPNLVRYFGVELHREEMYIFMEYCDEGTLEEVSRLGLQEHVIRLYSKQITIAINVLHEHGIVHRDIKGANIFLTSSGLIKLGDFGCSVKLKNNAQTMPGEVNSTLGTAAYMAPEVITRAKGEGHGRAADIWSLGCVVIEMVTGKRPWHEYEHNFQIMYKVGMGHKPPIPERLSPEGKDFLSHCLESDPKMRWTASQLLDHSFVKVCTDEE", "assay": "KINOMEscan", "assay_type": "binding", "settings": "1 μM of compound 4; read-out: POC"}, "[27]": {"molecular_target": "T15, RPS6KA5(Kin.Dom.2-C-terminal) (Homo sapiens, UniProt O75582)", "T15 construct": "RPS6KA5(Kin.Dom.2-C-terminal); purchased Eurofins DiscoverX Corporation (KINOMEscan screening service)", "T15 sequence (O75582 426-687 limits assumed)": "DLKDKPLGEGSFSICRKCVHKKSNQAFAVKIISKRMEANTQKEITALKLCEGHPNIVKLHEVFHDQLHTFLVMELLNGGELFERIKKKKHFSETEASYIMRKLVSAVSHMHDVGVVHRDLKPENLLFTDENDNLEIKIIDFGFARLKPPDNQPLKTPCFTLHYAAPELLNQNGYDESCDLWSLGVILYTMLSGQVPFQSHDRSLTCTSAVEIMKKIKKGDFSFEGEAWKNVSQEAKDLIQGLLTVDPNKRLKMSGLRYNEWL", "assay": "KINOMEscan", "assay_type": "binding", "settings": "1 μM of compound 4; read-out: POC"}, "[28]": {"molecular_target": "T16, PYK2 (Homo sapiens, UniProt Q14289)", "T16 construct": "purchased Eurofins DiscoverX Corporation (KINOMEscan screening service)", "assay": "KINOMEscan", "assay_type": "binding", "settings": "1 μM of compound 4; read-out: POC"}, "[29]": {"molecular_target": "T17, S6K1 (Homo sapiens, UniProt P23443)", "T17 construct": "purchased Eurofins DiscoverX (KINOMEscan service)", "assay": "KINOMEscan", "assay_type": "binding", "settings": "1 μM of compound 4; read-out: POC"}}}
{"smiles": "C=CC(=O)Nc1ccc(OC)c(Nc2cc(-c3[nH]c(CC)nc3-c3cccc(NC(=O)c4cccc5c4NC(=O)c4ccccc4N5)c3)ccn2)c1", "note": "[Compound 4, N-(3-(5-(2-((5-Acrylamido-2-methoxyphenyl)amino)pyridin-4-yl)-2-ethyl-1H-imidazol-4-yl)phenyl)-11-oxo-10,11-dihydro-5H-dibenzo[b,e][1,4]diazepine-9-carboxamide]", "values": [{"measurement": "remaining binding at 1 µM", "setting": "[1]", "result": 86, "unit": "%"}, {"measurement": "Ki", "setting": "[2]; read-out: KI, LRTM", "result": "1600 ± 100", "unit": "nM"}, {"measurement": "kinact", "setting": "[2]; read-out: kinact, LRTM (converted)", "result": 0.00167, "unit": "s⁻¹"}, {"measurement": "kinact/KI", "setting": "[2]; read-out: kinact/KI, LRTM", "result": "1070 ± 40", "unit": "M⁻¹ s⁻¹"}, {"measurement": "Ki", "setting": "[3]", "result": "1200 ± 40", "unit": "nM"}, {"measurement": "kinact", "setting": "[3]", "result": 0.003, "unit": "s⁻¹"}, {"measurement": "kinact/KI", "setting": "[3]", "result": "2500 ± 10", "unit": "M⁻¹ s⁻¹"}, {"measurement": "remaining binding at 1 µM", "setting": "[4]", "result": 75, "unit": "%"}, {"measurement": "remaining binding at 1 µM", "setting": "[5]", "result": 100, "unit": "%"}, {"measurement": "remaining binding at 1 µM", "setting": "[6]", "result": 95, "unit": "%"}, {"measurement": "remaining binding at 1 µM", "setting": "[7]", "result": 88, "unit": "%"}, {"measurement": "remaining binding at 1 µM", "setting": "[8]", "result": 84, "unit": "%"}, {"measurement": "remaining binding at 1 µM", "setting": "[9]", "result": 100, "unit": "%"}, {"measurement": "remaining binding at 1 µM", "setting": "[10]", "result": 100, "unit": "%"}, {"measurement": "remaining binding at 1 µM", "setting": "[11]", "result": 87, "unit": "%"}, {"measurement": "remaining binding at 1 µM", "setting": "[12]", "result": 74, "unit": "%"}, {"measurement": "remaining binding at 1 µM", "setting": "[13]", "result": 95, "unit": "%"}, {"measurement": "remaining binding at 1 µM", "setting": "[14]", "result": 77, "unit": "%"}, {"measurement": "remaining binding at 1 µM", "setting": "[15]", "result": 61, "unit": "%"}, {"measurement": "remaining binding at 1 µM", "setting": "[16]", "result": 84, "unit": "%"}, {"measurement": "remaining binding at 1 µM", "setting": "[17]", "result": 86, "unit": "%"}, {"measurement": "remaining binding at 1 µM", "setting": "[18]", "result": 97, "unit": "%"}, {"measurement": "remaining binding at 1 µM", "setting": "[19]", "result": 100, "unit": "%"}, {"measurement": "remaining binding at 1 µM", "setting": "[20]", "result": 80, "unit": "%"}, {"measurement": "remaining binding at 1 µM", "setting": "[21]", "result": 79, "unit": "%"}, {"measurement": "remaining binding at 1 µM", "setting": "[22]", "result": 94, "unit": "%"}, {"measurement": "remaining binding at 1 µM", "setting": "[23]", "result": 88, "unit": "%"}, {"measurement": "remaining binding at 1 µM", "setting": "[24]", "result": 100, "unit": "%"}, {"measurement": "remaining binding at 1 µM", "setting": "[25]", "result": 94, "unit": "%"}, {"measurement": "remaining binding at 1 µM", "setting": "[26]", "result": 100, "unit": "%"}, {"measurement": "remaining binding at 1 µM", "setting": "[27]", "result": 100, "unit": "%"}, {"measurement": "remaining binding at 1 µM", "setting": "[28]", "result": 100, "unit": "%"}, {"measurement": "remaining binding at 1 µM", "setting": "[29]", "result": 100, "unit": "%"}]}
